Experimental data: PubChem BioAssay (NCI)
Where “and” joins values, the source holds several entries; their conditions need not be identical. Equal values may be shown once.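 Exposure lasted 48 hours, with cells grown in 96-well plates and compounds tested at five concentrations. Abbreviation: GI50, concentration required for 50% inhibition of growth. TGI marks complete inhibition of growth.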

Assays:
Assay in all cases: NCI tumour cell line growth inhibition, 48 h
M19-MEL melanoma = tested on: M19-MEL melanoma
COLO 205 colon = tested on: COLO 205 colon
HL-60(TB) leukemia = tested on: HL-60(TB) leukemia
OVCAR-5 ovarian = tested on: OVCAR-5 ovarian
A549 NSCLC = tested on: A549 NSCLC
KM20L2 colon = tested on: KM20L2 colon
LXFL 529 NSCLC = tested on: LXFL 529 NSCLC
DLD-1 colon = tested on: DLD-1 colon
DU-145 prostate = tested on: DU-145 prostate
MDA-MB-435 = tested on: MDA-MB-435

Cc1cc(C)c(C(=O)c2no[n+]([O-])c2C(=O)c2c(C)cc(C)c(Br)c2C)c(C)c1Br
TGI (M19-MEL melanoma): 25.7 µM | TGI (COLO 205 colon): 31.4 µM | TGI (HL-60(TB) leukemia): 15.2 µM | TGI (OVCAR-5 ovarian): 33 µM | TGI (A549 NSCLC): 39.1 µM | TGI (KM20L2 colon): 32.9 µM | TGI (LXFL 529 NSCLC): 23.7 µM | TGI (DLD-1 colon): 30.7 µM

CN1CC[C@]2(C)c3ccc(O)cc3CC3CCCC1C32C (some centres undefined)
TGI (M19-MEL melanoma): > 100 µM | TGI (COLO 205 colon): > 100 µM | TGI (HL-60(TB) leukemia): > 100 µM | TGI (OVCAR-5 ovarian): > 100 µM | TGI (A549 NSCLC): > 100 µM | TGI (KM20L2 colon): > 100 µM | TGI (LXFL 529 NSCLC): > 100 µM | TGI (DLD-1 colon): > 100 µM

NC(=S)NNc1c([N+](=O)[O-])cnn(-c2ccccc2)c1=O
TGI (M19-MEL melanoma): 26.5 µM | TGI (COLO 205 colon): 26.7 µM | TGI (HL-60(TB) leukemia): 19.3 µM | TGI (OVCAR-5 ovarian): 32.4 µM | TGI (A549 NSCLC): 49.9 µM | TGI (KM20L2 colon): 29.8 µM | TGI (LXFL 529 NSCLC): 21.1 µM | TGI (DLD-1 colon): 28.5 µM

COc1ccc(N2C(=O)[C@H]3CC(C)c4c([nH]c5ccccc45)[C@H]3C2=O)cc1 (some centres undefined)
TGI (M19-MEL melanoma): 55.5 µM | TGI (COLO 205 colon): 9.11 µM | TGI (HL-60(TB) leukemia): 20.1 µM | TGI (DU-145 prostate): > 45.8 µM | TGI (OVCAR-5 ovarian): > 85.6 µM | TGI (A549 NSCLC): > 90.7 µM | TGI (KM20L2 colon): 12.7 µM | TGI (LXFL 529 NSCLC): 26.8 µM | TGI (DLD-1 colon): > 41.5 µM | TGI (MDA-MB-435): 2.3 µM

C/C=C1\NC(=O)[C@H]2CSSCCC=C[C@H](CC(=O)N[C@H](C(C)C)C(=O)N2)OC(=O)[C@H](C(C)C)NC1=O
TGI (M19-MEL melanoma): 0.0564 µM and 0.065 µM | GI50 (COLO 205 colon): < 0.01 µM and 0.000172 µM | TGI (COLO 205 colon): < 0.01 µM and 0.000811 µM | GI50 (HL-60(TB) leukemia): < 0.01 µM and 0.000299 µM | GI50 (DU-145 prostate): < 0.01 µM | TGI (DU-145 prostate): 0.226 µM and 0.0645 µM and 0.199 µM | GI50 (OVCAR-5 ovarian): < 0.01 µM and 0.000261 µM | GI50 (A549 NSCLC): < 0.01 µM | TGI (A549 NSCLC): < 0.012 µM and 0.0205 µM and 0.0185 µM | TGI (KM20L2 colon): 0.00796 µM | GI50 (DLD-1 colon): 0.0102 µM | TGI (DLD-1 colon): 0.289 µM | GI50 (MDA-MB-435): < 0.01 µM | TGI (MDA-MB-435): < 0.0134 µM and 0.0207 µM and 0.125 µM

CC[C@]1(O)C(=O)OCc2c1cc1n(c2=O)Cc2cc3c(N)cccc3nc2-1
TGI (M19-MEL melanoma): > 100 µM | TGI (COLO 205 colon): > 100 µM | TGI (HL-60(TB) leukemia): > 100 µM | TGI (OVCAR-5 ovarian): > 100 µM | TGI (A549 NSCLC): > 100 µM | TGI (KM20L2 colon): > 100 µM | TGI (LXFL 529 NSCLC): > 100 µM | TGI (DLD-1 colon): > 100 µM

CC[O-].CC[O-].O=S(=O)([O-])c1ccc([O-])c2ncccc12.O=S(=O)([O-])c1ccc([O-])c2ncccc12.[Ti+4]
GI50 (M19-MEL melanoma): > 100 µM | TGI (M19-MEL melanoma): > 100 µM | GI50 (COLO 205 colon): 83.2 µM | TGI (COLO 205 colon): > 100 µM | GI50 (HL-60(TB) leukemia): 40.9 µM | TGI (HL-60(TB) leukemia): > 100 µM | GI50 (OVCAR-5 ovarian): 33.5 µM | TGI (OVCAR-5 ovarian): > 100 µM | GI50 (A549 NSCLC): 39.1 µM | TGI (A549 NSCLC): > 100 µM | GI50 (KM20L2 colon): 39.7 µM | TGI (KM20L2 colon): > 100 µM | GI50 (LXFL 529 NSCLC): 39.6 µM | TGI (LXFL 529 NSCLC): > 100 µM | GI50 (DLD-1 colon): 91.1 µM | TGI (DLD-1 colon): > 100 µM

NCCCCNc1ccc2c(=O)[nH][nH]c(=O)c2c1
TGI (M19-MEL melanoma): > 100 µM | TGI (COLO 205 colon): > 100 µM | TGI (HL-60(TB) leukemia): > 100 µM | TGI (OVCAR-5 ovarian): > 100 µM | TGI (A549 NSCLC): > 100 µM | TGI (KM20L2 colon): > 100 µM | TGI (LXFL 529 NSCLC): > 100 µM | TGI (DLD-1 colon): > 100 µM

C/C=C/C=C/C=C/C=C/C(=O)O
TGI (COLO 205 colon): > 100 µM | TGI (HL-60(TB) leukemia): > 100 µM | TGI (OVCAR-5 ovarian): > 100 µM | TGI (A549 NSCLC): > 100 µM | TGI (KM20L2 colon): > 100 µM | TGI (LXFL 529 NSCLC): > 100 µM | TGI (DLD-1 colon): > 100 µM

Cc1ccccc1C1=C(C(=O)Nc2ccc(Cl)c(Cl)c2)NC(=S)NC1N (centres undefined)
TGI (M19-MEL melanoma): > 100 µM | TGI (COLO 205 colon): > 100 µM | TGI (OVCAR-5 ovarian): > 100 µM | TGI (A549 NSCLC): > 100 µM | TGI (KM20L2 colon): > 100 µM | TGI (LXFL 529 NSCLC): > 100 µM | TGI (DLD-1 colon): > 100 µM

O=C(N/N=C(/CCN1CCCC1)CC(c1ccccc1)c1c(O)c2ccccc2oc1=O)c1ccncc1 (centres undefined)
TGI (M19-MEL melanoma): > 100 µM | TGI (HL-60(TB) leukemia): 84.8 µM | TGI (OVCAR-5 ovarian): > 100 µM | TGI (A549 NSCLC): > 100 µM | TGI (KM20L2 colon): > 100 µM | TGI (LXFL 529 NSCLC): > 100 µM | TGI (DLD-1 colon): > 100 µM

CCOC(=O)c1cc(/C=C/C(C)=C/C(=O)OC)oc1C
TGI (M19-MEL melanoma): > 100 µM | TGI (COLO 205 colon): > 100 µM | TGI (HL-60(TB) leukemia): > 100 µM | TGI (OVCAR-5 ovarian): > 100 µM | TGI (A549 NSCLC): > 100 µM | TGI (KM20L2 colon): > 100 µM | TGI (LXFL 529 NSCLC): > 100 µM | TGI (DLD-1 colon): > 100 µM

CCOP(=O)(OCC)OC(C#N)c1ccc(-c2ccccc2)cc1 (centres undefined)
TGI (M19-MEL melanoma): 50.3 µM | TGI (COLO 205 colon): 32.4 µM | TGI (HL-60(TB) leukemia): 36.9 µM | TGI (OVCAR-5 ovarian): > 100 µM | TGI (A549 NSCLC): 34.9 µM | TGI (KM20L2 colon): > 100 µM | TGI (LXFL 529 NSCLC): 32 µM | TGI (DLD-1 colon): 36.9 µM

COC1C2C=CC(C2)[C@H]1[N+](=O)[O-] (some centres undefined)
TGI (M19-MEL melanoma): > 100 µM | TGI (COLO 205 colon): > 100 µM | TGI (HL-60(TB) leukemia): > 100 µM | TGI (OVCAR-5 ovarian): > 100 µM | TGI (A549 NSCLC): > 100 µM | TGI (KM20L2 colon): > 100 µM | TGI (LXFL 529 NSCLC): > 100 µM | TGI (DLD-1 colon): > 100 µM

CC1=C(C(=O)Nc2cccc(Cl)c2)C(c2ccccc2F)C(C(=O)Nc2cccc(Cl)c2)=C(C)N1
TGI (M19-MEL melanoma): 26.4 µM | TGI (COLO 205 colon): 26.3 µM | TGI (HL-60(TB) leukemia): 18.7 µM | TGI (OVCAR-5 ovarian): 37.2 µM | TGI (A549 NSCLC): 40.6 µM | TGI (KM20L2 colon): 24.3 µM | TGI (LXFL 529 NSCLC): 23.4 µM | TGI (DLD-1 colon): 28.8 µM

CN(C)/N=C(/c1nc2ccc(Cl)cc2[nH]c1=O)C(O)c1ccc(C(O)/C(=N\N(C)C)c2nc3ccc(Cl)cc3[nH]c2=O)cc1 (centres undefined)
TGI (M19-MEL melanoma): > 100 µM | TGI (COLO 205 colon): > 100 µM | TGI (HL-60(TB) leukemia): > 100 µM | TGI (OVCAR-5 ovarian): > 100 µM | TGI (A549 NSCLC): > 100 µM | TGI (KM20L2 colon): > 100 µM | TGI (DLD-1 colon): > 100 µM

COC(=O)[C@]12CCC(C)[C@H](C)[C@H]1C1=CCC3[C@@]4(C)CC[C@H](OC(C)=O)C(C)(C)C4CC[C@@]3(C)C1(C)C(O)C2 (some centres undefined)
TGI (M19-MEL melanoma): > 100 µM | TGI (COLO 205 colon): > 100 µM | TGI (OVCAR-5 ovarian): > 100 µM | TGI (A549 NSCLC): > 100 µM | TGI (KM20L2 colon): > 100 µM | TGI (LXFL 529 NSCLC): > 100 µM | TGI (DLD-1 colon): > 100 µM

C/C(=N\N(c1ccccc1)c1ccccc1)c1c(O)cc(C)oc1=O
TGI (M19-MEL melanoma): > 100 µM | TGI (A549 NSCLC): > 100 µM | TGI (KM20L2 colon): > 100 µM | TGI (LXFL 529 NSCLC): > 100 µM | TGI (DLD-1 colon): > 100 µM

CCCCN(CCCC)c1c([N+](=O)[O-])c(=O)nc2ccccn12
TGI (M19-MEL melanoma): > 100 µM | TGI (COLO 205 colon): > 100 µM | TGI (OVCAR-5 ovarian): > 100 µM | TGI (A549 NSCLC): > 100 µM | TGI (KM20L2 colon): > 100 µM | TGI (LXFL 529 NSCLC): > 100 µM | TGI (DLD-1 colon): > 100 µM
